{
  "source": "paper PMC6009893",
  "about": "“Synthesis, biological activity and molecular modelling studies of shikimic acid derivatives as inhibitors of the shikimate dehydrogenase enzyme of Escherichia coli” (Journal of Enzyme Inhibition and Medicinal Chemistry, 2018)",
  "key": {"[1]": {"system": "E. coli strain JM101", "experiment": "Minimal inhibitory concentration (MIC), broth microdilution", "type": "cell-based", "conditions": "Escherichia coli, LB media, 37 °C, 16 h, tested 4-512 mg/l, duplicate", "description": "The broth microdilution method[25] was used to determine the MIC of synthesised molecules against E. coli strain JM101. Cells were grown to exponential phase in LB media (OD600nm ∼0.5) and the cultures were diluted to a concentration of 2 × 10^5 colony-forming units/ml. The 96-well plates containing 75 µl of LB media and synthesised compounds were inoculated with 75 µl of the bacterial suspension and shaken at 37 °C for 16 h. Compounds were tested in a range of doubling concentrations between 4 and 512 mg/l with a final dimethylsulphoxide concentration of 0.8% (v/v). LB media supplemented with kanamycin was used as a positive control, and the OD600nm of the DMSO-treated control was taken as representative of 100% bacterial growth. […] Experiments were performed in duplicate."}, "[2]": {"target": "T1, EcSDH (shikimate dehydrogenase enzyme of Escherichia coli) (Escherichia coli, UniProt P15770)", "T1 construct": "6-Histidine tag (pCold-I) (N, cleaved yes); made in house; host or cells: E. coli ΔaroE::KanR (JW3242, Keio collection) carrying pCold-EcSDH", "T1 sequence (P15770 whole entry)": "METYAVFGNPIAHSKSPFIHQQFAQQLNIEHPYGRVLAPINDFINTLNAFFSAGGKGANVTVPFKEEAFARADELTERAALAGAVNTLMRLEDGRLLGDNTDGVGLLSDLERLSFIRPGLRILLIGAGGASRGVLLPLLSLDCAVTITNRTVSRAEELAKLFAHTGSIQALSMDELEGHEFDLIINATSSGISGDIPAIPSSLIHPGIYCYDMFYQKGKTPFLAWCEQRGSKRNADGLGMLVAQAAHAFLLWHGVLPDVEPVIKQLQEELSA", "experiment": "EcSDH enzymatic activity assay (NADPH oxidation at 340 nm, DHS as substrate)", "type": "biochemical", "conditions": "for KI (dissociation constant for the enzyme-substrate-inhibitor complex): 25 °C, NADPH 0.21 mM, DHS 0.0625-1.5 mM, mixed type inhibition, triplicate", "description": "The enzymatic activity of EcSDH was assayed at 25 °C by monitoring the oxidation of NADPH at 340 nm (ϵ = 6.18 × 10^3 M^−1 cm^−1). All assays were performed in a Genesys 10 S UV-vis spectrophotometer (Thermo Fisher Scientific Inc., Waltham, MA). The reaction mix contained (final volume 200 µl) KH2PO4 100 mM pH 7.5, NADPH 0.21 mM, DHS, synthesised molecules and diluted enzyme. Stored enzyme stocks (200 U/ml) were diluted 1:100 in KH2PO4 100 mM pH 7.5 before use. The reaction was initiated by addition of 2 µl of the diluted EcSDH enzyme and absorbance was measured within 2 min. During assays NADPH concentration was fixed at 0.21 mM, DHS concentrations were 0.0625, 0.125, 0.25, 0.5, 1 and 1.5 mM and concentrations of amides were 0, 0.25, 0.5, 1 and 1.5 mM. Experiments were performed in triplicate.\nTo determine the inhibition mode Lineweaver–Burk plots of the inverse of velocities (1/v) versus the inverse of substrate concentration 1/[S] were obtained. The Michaelis–Menten constant (Km), maximum velocity (Vmax) and inhibition constants (Ki and KI) were analysed using Equation (1)[22]^,[23]. Where I represent the inhibitor concentration, KI is defined as the dissociation constant for the enzyme-substrate-inhibitor complex and Ki as the dissociation constant for the enzyme-inhibitor complex. Kinetic data were processed by nonlinear regression using the Origin software (OriginLab, Northampton, MA).\nDissociation constants were related to IC50 values following the Cheng–Prusoff Equation (2)[24]. Where IC50 represents the concentration of inhibitor producing 50% of enzyme inhibition. The determined Km of DHS was 92.29 ± 2.70 µM, and 125 µM of DHS was delimited as the substrate concentration [S]: (1) v=Vmax [S]/S1+I/KI+ Km(1+ [I]/Ki) (2) IC50= Km+[S]/Km/Ki+ ([S]/KI).\nThe inhibitory effect of SA amide-derivatives was tested against EcSDH at […]. To characterise the enzymatic activity for its more biological meaningful reaction, the enzyme was assayed in the direction of SA formation, for this DHS was used as the substrate. The activity of EcSDH enzyme was determined in the presence of different concentrations of synthesised compounds, and Lineweaver–Burk plots of (1/v) versus 1/[S] were obtained. […] To characterise the kinetic parameters, data were analysed using Equation (1). For every synthesised amide Ki < KI indicating a stronger affinity for the substrate free instead of bounded substrate enzyme. […] Despite the similar magnitude of inhibition, it appears that inhibition activity smoothly increases with increase in the alkyl chain length. […] The similar inhibitory effect of diamides may arise with strong participation of the extra SA substituent."}, "[3]": {"system": "SDH enzyme of Escherichia coli (EcSDH)", "set-up": "method as in earlier work", "conditions": "cited from earlier work"}, "[4]": {"system": "H. pylori", "set-up": "method as in PMID 16972983", "conditions": "in vitro antibacterial activity; cited from earlier work"}, "[5]": {"target": "SDH of H. pylori", "set-up": "method as in PMID 16972983", "conditions": "SA; non-competitive inhibitor; cited from earlier work"}, "[6]": {"system": "SDH of Pseudomonas putida", "set-up": "method as in PMID 24632659", "conditions": "cited from earlier work"}, "[7]": {"target": "Pisum sativum SDH enzyme", "set-up": "method as in PMID 13686343", "conditions": "SA; competitive inhibition; cited from earlier work"}},
  "data": [
    {"smiles": "O=C(NCCNC(=O)C1=C[C@@H](O)[C@@H](O)[C@H](O)C1)C1=C[C@@H](O)[C@@H](O)[C@H](O)C1", "note": "[Dim2, (3R,3'R,4S,4'S,5R,5'R)-N,N'-(ethane-1,2-diyl)bis(3,4,5-trihydroxycyclohex-1-ene-1-carboxamide)]", "values": [
      {"measurement": "MIC", "setting": "[1]", "value": 512, "unit": "µg/mL"},
      {"measurement": "IC50", "setting": "[2]", "value": "588 ± 55", "unit": "µM"},
      {"measurement": "Ki", "setting": "[2]", "value": "416 ± 69", "unit": "µM"},
      {"measurement": "KI (dissociation constant for the enzyme-substrate-inhibitor complex)", "setting": "[2]", "value": "831 ± 12", "unit": "µM"}
    ]},
    {"smiles": "O=C(NCCCNC(=O)C1=C[C@@H](O)[C@@H](O)[C@H](O)C1)C1=C[C@@H](O)[C@@H](O)[C@H](O)C1", "note": "[Dim3, (3R,3'R,4S,4'S,5R,5'R)-N,N'-(propane-1,3-diyl)bis(3,4,5-trihydroxycyclohex-1-ene-1-carboxamide)]", "values": [
      {"measurement": "MIC", "setting": "[1]", "value": 512, "unit": "µg/mL"},
      {"measurement": "IC50", "setting": "[2]", "value": "589 ± 56", "unit": "µM"},
      {"measurement": "Ki", "setting": "[2]", "value": "400 ± 50", "unit": "µM"},
      {"measurement": "KI (dissociation constant for the enzyme-substrate-inhibitor complex)", "setting": "[2]", "value": "896 ± 72", "unit": "µM"}
    ]},
    {"smiles": "O=C(NCCCCNC(=O)C1=C[C@@H](O)[C@@H](O)[C@H](O)C1)C1=C[C@@H](O)[C@@H](O)[C@H](O)C1", "note": "[Dim4, (3R,3'R,4S,4'S,5R,5'R)-N,N'-(butane-1,4-diyl)bis(3,4,5-trihydroxycyclohex-1-ene-1-carboxamide)]", "values": [
      {"measurement": "MIC", "setting": "[1]", "value": 512, "unit": "µg/mL"},
      {"measurement": "IC50", "setting": "[2]", "value": "652 ± 65", "unit": "µM"},
      {"measurement": "Ki", "setting": "[2]", "value": "458 ± 81", "unit": "µM"},
      {"measurement": "KI (dissociation constant for the enzyme-substrate-inhibitor complex)", "setting": "[2]", "value": "945 ± 13", "unit": "µM"}
    ]},
    {"smiles": "O=C(NCCCO)C1=C[C@@H](O)[C@@H](O)[C@H](O)C1", "note": "[Mon3, (3R,4S,5R)-3,4,5-trihydroxy-N-(3-hydroxypropyl)cyclohex-1-ene-1-carboxamide]", "values": [
      {"measurement": "MIC", "setting": "[1]", "value": 512, "unit": "µg/mL"},
      {"measurement": "IC50", "setting": "[2]", "value": "949 ± 33", "unit": "µM"},
      {"measurement": "Ki", "setting": "[2]", "value": "733 ± 67", "unit": "µM"},
      {"measurement": "KI (dissociation constant for the enzyme-substrate-inhibitor complex)", "setting": "[2]", "value": "1214 ± 58", "unit": "µM"}
    ]},
    {"smiles": "O=C(NCCCCO)C1=C[C@@H](O)[C@@H](O)[C@H](O)C1", "note": "[Mon4, (3R,4S,5R)-3,4,5-trihydroxy-N-(4-hydroxybutyl)cyclohex-1-ene-1-carboxamide]", "values": [
      {"measurement": "MIC", "setting": "[1]", "value": 512, "unit": "µg/mL"},
      {"measurement": "IC50", "setting": "[2]", "value": "882 ± 54", "unit": "µM"},
      {"measurement": "Ki", "setting": "[2]", "value": "717 ± 71", "unit": "µM"},
      {"measurement": "KI (dissociation constant for the enzyme-substrate-inhibitor complex)", "setting": "[2]", "value": "1145 ± 130", "unit": "µM"}
    ]},
    {"smiles": "O=C(NCCCCCO)C1=C[C@@H](O)[C@@H](O)[C@H](O)C1", "note": "[Mon5, (3R,4S,5R)-3,4,5-trihydroxy-N-(5-hydroxypentyl)cyclohex-1-ene-1-carboxamide]", "values": [
      {"measurement": "MIC", "setting": "[1]", "value": 512, "unit": "µg/mL"},
      {"measurement": "IC50", "setting": "[2]", "value": "953 ± 10", "unit": "µM"},
      {"measurement": "Ki", "setting": "[2]", "value": "642 ± 34", "unit": "µM"},
      {"measurement": "KI (dissociation constant for the enzyme-substrate-inhibitor complex)", "setting": "[2]", "value": "1483 ± 91", "unit": "µM"}
    ]},
    {"smiles": "O=C(NCCCCCCO)C1=C[C@@H](O)[C@@H](O)[C@H](O)C1", "note": "[Mon6, (3R,4S,5R)-3,4,5-trihydroxy-N-(6-hydroxyhexyl)cyclohex-1-ene-1-carboxamide]", "values": [
      {"measurement": "MIC", "setting": "[1]", "value": 512, "unit": "µg/mL"},
      {"measurement": "IC50", "setting": "[2]", "value": "829 ± 49", "unit": "µM"},
      {"measurement": "Ki", "setting": "[2]", "value": "587 ± 49", "unit": "µM"},
      {"measurement": "KI (dissociation constant for the enzyme-substrate-inhibitor complex)", "setting": "[2]", "value": "1188 ± 26", "unit": "µM"}
    ]},
    {"smiles": "O=C(O)C1=C[C@@H](O)[C@@H](O)[C@H](O)C1", "note": "[SA, (-)-shikimic acid]", "values": [
      {"measurement": "Ki", "setting": "[3]", "value": 160, "unit": "µM"}
    ]},
    {"smiles": "COc1cc(/C=C/C(=O)CC(=O)/C=C/c2ccc(O)c(OC)c2)ccc1O", "note": "[curcumin]", "values": [
      {"measurement": "MIC", "setting": "[4]", "value": 16, "unit": "µg/mL"},
      {"measurement": "Ki", "setting": "[5]", "value": 6, "unit": "µM"}
    ]},
    {"smiles": "O=C(O[C@@H]1Cc2c(O)cc(O)cc2O[C@@H]1c1cc(O)c(O)c(O)c1)c1cc(O)c(O)c(O)c1", "note": "[epigallocatechin gallate]", "values": [
      {"measurement": "IC50", "setting": "[6]", "value": 3, "unit": "µM"}
    ]},
    {"smiles": "O=C(O)c1cc(O)c(O)c(O)c1", "note": "[gallic acid]", "values": [
      {"measurement": "Ki", "setting": "[7]", "value": 380, "unit": "µM"}
    ]},
    {"smiles": "O=C(O)c1ccc(O)c(O)c1", "note": "[protocatechuic acid]", "values": [
      {"measurement": "Ki", "setting": "[7]", "value": 750, "unit": "µM"}
    ]},
    {"smiles": "COc1cc(C=O)ccc1O", "note": "[vanillin]", "values": [
      {"measurement": "Ki", "setting": "[7]", "value": 93, "unit": "µM"}
    ]}
  ]
}
